Source: patent US10294234B2, “HIV inhibitor compounds” (priority 2017, dated 2019)

Experiments:
[1] = test system: HIV-1 (IIIB) in MT-4 cells; test: MT-4 HIV assay; type: cell-based; settings: Human immunodeficiency virus 1, MT4, 120 h; HIV-1 (IIIB), MT-4 cells, 5 days, Cell Titer Glo; read-out: EC50
How it was run: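 MT-4 cells infected with HIV-1 IIIB (1:250 stock dilution) were incubated with 1:3 serially diluted compounds in RPMI with 10% FBS for 5 days at 37 °C. Cell Titer Glo luminescence was the readout. Plates included mock-infected wells, no-drug wells and 5 uM AZT controls.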

[2] = microsomes
How it was run: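 Dog, rat and human liver microsomes (0.5 mg/mL) with NADPH-regenerating cofactor; test compound 1 uM, duplicates. Timepoints 2, 12, 25, 45, 65 min; protein removed by centrifugation, supernatant analysed by LC/MS/MS. Clint from t1/2.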

in vivo = settings: rat, in vivo; for Vd / RAT PO F: male, SD; for Vd / RAT IV CL / RAT IV T1/2: iv; for RAT PO F: 2.5 mg/kg
Method: Each dosing group consisted of 3 male naïve SD Rats. At dosing, the animals weighed between 0.27 to 0.32 kg. The animals were fasted overnight prior to dose administration. The test article was administered by intravenous infusion over 30 min. The rate of infusion was adjusted according to the body weight of each animal to deliver a dose of 0.5 or 1.0 mg/kg. For the oral dosing group, the test article was administered to animals by oral gavage administration. Serial venous blood samples (approximately 0.30 mL each) were taken at predose and 0.25, 0.48, 0.58, 0.75, 1.5, 3, 6, 8, 12 and 24 hours post dose for the IV dosing group animals. Blood samples were taken at predose, 0.25, 0.50, 1, 2, 4, 6, 8, 12 and 24 hours post dose for the oral group animals. The blood samples were collected into Vacutainer™ tubes containing EDTA-K2 as the anti-coagulant and were immediately placed on wet ice pending centrifugation for plasma. An LC/MS/MS method was used to measure the concentration of test compound in plasma. Non-compartmental pharmacokinetic analysis was performed on the plasma concentration-time data.

| Structure (SMILES) | EC50 [1] | Dog. Pred. Cl. [2] | Human Pred Cl. [2] | Rat. Pred. Cl. [2] | Vd (in vivo) | RAT PO F (in vivo) | RAT IV CL (in vivo) | RAT IV T1/2 (in vivo) |
| --- | --- | --- | --- | --- | --- | --- | --- | --- |
| COC(=O)N[C@H](C(=O)NN(Cc1c(F)cc(-c2ccn(C(F)F)n2)cc1F)C[C@H](O)[C@H](Cc1ccc(C#Cc2cnc(N3CC4CCC(C3)N4C3COC3)nc2)cc1)NC(=O)[C@@H](NC(=O)C1CC1)C(C)(C)C(F)(F)F)C(C)(C)C(F)(F)F [Example 221, Methyl ((2S)-1-(2-((2S,3S)-3-((S)-2-(cyclopropanecarboxamido)-4,4,4-trifluoro-3,3-dimethylbutanamido)-2-hydroxy-4-(4-((2-(8-(oxetan-3-yl)-3,8-diazabicyclo[3.2.1]octan-3-yl)pyrimidin-5-yl)ethynyl)phenyl)butyl)-2-(4-(1-(difluoromethyl)-1H-pyrazol-3-yl)-2,6-difluorobenzyl)hydrazinyl)-4,4,4-trifluoro-3,3-dimethyl-1-oxobutan-2-yl)carbamate] | 4.49 nM | 0.14 L/H/kg | <0.11 L/H/kg | 0.28 L/H/kg | 4.41 L/kg | 19.9% | 5.33 mL/min/kg | 11.5 h |
| COC(=O)N[C@H](C(=O)N[C@@H](Cc1ccc(C#Cc2ccc(N3CC4COCC(C3)N4C3COC3)nc2)cc1)[C@@H](O)CN(Cc1c(F)cc(-c2ccn(C(F)F)n2)cc1F)NC(=O)[C@@H](NC(=O)OC)C(C)(C)C(F)(F)F)C(C)(C)C(F)(F)F [Example 180, Methyl ((5S,8S,9S,14S)-11-(4-(1-(difluoromethyl)-1H-pyrazol-3-yl)-2,6-difluorobenzyl)-16,16,16-trifluoro-9-hydroxy-15,15-dimethyl-8-(4-((6-(9-(oxetan-3-yl)-3-oxa-7,9-diazabicyclo[3.3.1]nonan-7-yl)pyridin-3-yl)ethynyl)benzyl)-3,6,13-trioxo-5-(1,1,1-trifluoro-2-methylpropan-2-yl)-2-oxa-4,7,11,12-tetraazahexadecan-14-yl)carbamate] | 3.69 nM | – | <0.11 L/H/kg | <0.18 L/H/kg | 0.52 L/kg | 4.29% | 6.5 mL/min/kg | 2.81 h |
| COC(=O)N[C@H](C(=O)N[C@@H](Cc1ccc(C#Cc2ccc(N3CC4CCC(C3)N4C3COC3)nc2)cc1)[C@@H](O)CN(Cc1ccc(-c2ccccn2)cc1)NC(=O)[C@@H](NC(=O)OC)C(C)(C)C(F)(F)F)C(C)(C)C(F)(F)F [Example 56, Methyl ((5S,8S,9S,14S)-16,16,16-trifluoro-9-hydroxy-15,15-dimethyl-8-(4-((6-(8-(oxetan-3-yl)-3,8-diazabicyclo[3.2.1]octan-3-yl)pyridin-3-yl)ethynyl)benzyl)-3,6,13-trioxo-11-(4-(pyridin-2-yl)benzyl)-5-(1,1,1-trifluoro-2-methylpropan-2-yl)-2-oxa-4,7,11,12-tetraazahexadecan-14-yl)carbamate] | 3.59 nM | 1.47 L/H/kg | 0.17 L/H/kg | 0.19 L/H/kg | 7.44 L/kg | 34.1% | 14.2 mL/min/kg | 8.77 h |
| COC(=O)N[C@H](C(=O)N[C@@H](Cc1ccc(C#Cc2ccc(N3CC4CCC(C3)N4C3COC3)nc2)cc1)[C@@H](O)CN(Cc1c(F)cc(-c2ccccn2)cc1F)NC(=O)[C@@H](NC(=O)OC)C(C)(C)C(F)(F)F)C(C)(C)C(F)(F)F [Example 130, Methyl ((5S,8S,9S,14S)-11-(2,6-difluoro-4-(pyridin-2-yl)benzyl)-16,16,16-trifluoro-9-hydroxy-15,15-dimethyl-8-(4-((6-(8-(oxetan-3-yl)-3,8-diazabicyclo 3.2.1 octan-3-yl)pyridin-3-yl)ethynyl)benzyl)-3,6,13-trioxo-5-(1,1,1-trifluoro-2-methylpropan-2-yl)-2-oxa-4,7,11,12-tetraazahexadecan-14-yl)carbamate] | 3.41 nM | – | 0.32 L/H/kg | <0.18 L/H/kg | 5.27 L/kg | 55.7% | 6.5 mL/min/kg | 11.5 h |
| COC(=O)N[C@H](C(=O)N[C@@H](Cc1ccc(C#Cc2ccc(N3CC4CCC(C3)N4C3COC3)nc2)cc1)[C@@H](O)CN(Cc1c(F)cc(-c2cn(C(F)F)cn2)cc1F)NC(=O)[C@@H](NC(=O)OC)C(C)(C)C(F)(F)F)C(C)(C)C(F)(F)F [Example 79, Methyl ((5S,8S,9S,14S)-11-(4-(1-(difluoromethyl)-1H-imidazol-4-yl)-2,6-difluorobenzyl)-16,16,16-trifluoro-9-hydroxy-15,15-dimethyl-8-(4-((6-(8-(oxetan-3-yl)-3,8-diazabicyclo[3.2.1]octan-3-yl)pyridin-3-yl)ethynyl)benzyl)-3,6,13-trioxo-5-(1,1,1-trifluoro-2-methylpropan-2-yl)-2-oxa-4,7,11,12-tetraazahexadecan-14-yl)carbamate] | 3.53 nM | – | <0.11 L/H/kg | <0.18 L/H/kg | 4.07 L/kg | 13.1% | 12.8 mL/min/kg | 5.13 h |
| COC(=O)N[C@H](C(=O)N[C@@H](Cc1ccc(C#Cc2cnc(N3CC4CCC(C3)N4C3COC3)nc2)cc1)[C@@H](O)CN(Cc1c(F)cc(-c2cnn(C(F)F)c2)cc1F)NC(=O)[C@@H](NC(=O)OC)C(C)(C)C(F)(F)F)C(C)(C)C(F)(F)F [Example 61, Methyl ((5S,8S,9S,14S)-11-(4-(1-(difluoromethyl)-1H-pyrazol-4-yl)-2,6-difluorobenzyl)-16,16,16-trifluoro-9-hydroxy-15,15-dimethyl-8-(4-((2-(8-(oxetan-3-yl)-3,8-diazabicyclo[3.2.1]octan-3-yl)pyrimidin-5-yl)ethynyl)benzyl)-3,6,13-trioxo-5-(1,1,1-trifluoro-2-methylpropan-2-yl)-2-oxa-4,7,11,12-tetraazahexadecan-14-yl)carbamate] | 4.11 nM | – | <0.11 L/H/kg | <0.18 L/H/kg | 6.5 L/kg | 18.5% | 7.17 mL/min/kg | 12.9 h |
| COC(=O)N[C@H](C(=O)N[C@@H](Cc1ccc(C#Cc2ccc(N3CC4CCC(C3)N4C3COC3)nc2)cc1)[C@@H](O)CN(Cc1c(F)cc(-c2cc3n(n2)CCOC3)cc1F)NC(=O)[C@@H](NC(=O)OC)C(C)(C)C(F)(F)F)C(C)(C)C(F)(F)F [Example 57, Methyl ((5S,8S,9S,14S)-11-(4-(6,7-dihydro-4H-pyrazolo[5,1-c][1,4]oxazin-2-yl)-2,6-difluorobenzyl)-16,16,16-trifluoro-9-hydroxy-15,15-dimethyl-8-(4-((6-(8-(oxetan-3-yl)-3,8-diazabicyclo[3.2.1]octan-3-yl)pyridin-3-yl)ethynyl)benzyl)-3,6,13-trioxo-5-(1,1,1-trifluoro-2-methylpropan-2-yl)-2-oxa-4,7,11,12-tetraazahexadecan-14-yl)carbamate] | 2.91 nM | – | <0.11 L/H/kg | <0.18 L/H/kg | 2.45 L/kg | 23.2% | 6 mL/min/kg | 6.28 h |
